Assay results reported in ChEMBL document CHEMBL1157277, “Antifungal and antibacterial metabolites from a sclerotium-colonizing isolate of Mortierella vinacea” (1999).
The source made the active and inactive calls. The calls are words filed in the database; no cut-off is given here.

Experiments:
Bacillus subtilis [1] = assay: Antimicrobial activity against Bacillus subtilis ATCC 6051 at 50 ug/disk by standard disk assay; assay type: functional, organism-based
Staphylococcus aureus [2] = assay: Antimicrobial activity against Staphylococcus aureus ATCC 14053 at 50 ug/disk by standard disk assay; assay type: functional, organism-based
Candida albicans [3] = assay: Antimicrobial activity against Candida albicans ATCC 10453 at 50 ug/disk by standard disk assay; assay type: functional; conditions: read-out: IZ
Fusarium verticillioides [4] = assay: Antimicrobial activity against Fusarium verticillioides NRRL 25457 at 250 ug/disk by standard disk assay after 48 hrs; assay type: functional; conditions: for zone of inhibition at 250 µg/disc: NRRL 25457, 48 h, read-out: IZ
Aspergillus flavus = assay: Antimicrobial activity against Aspergillus flavus NRRL 6541 at 250 ug/disk by standard disk assay; assay type: functional, organism-based
Fusarium verticillioides [5] = assay: Antimicrobial activity against Fusarium verticillioides NRRL 25457 at 100 ug/disk by standard disk assay after 48 hrs; assay type: functional, organism-based
Candida albicans [6] = assay: Antimicrobial activity against Candida albicans ATCC 10453 at 100 ug/disk by standard disk assay; assay type: functional; conditions: read-out: IZ
Bacillus subtilis [7] = assay: Antimicrobial activity against Bacillus subtilis ATCC 6051 at 100 ug/disk by standard disk assay; assay type: functional; conditions: read-out: IZ
Staphylococcus aureus [8] = assay: Antimicrobial activity against Staphylococcus aureus ATCC 14053 at 100 ug/disk by standard disk assay; assay type: functional; conditions: read-out: IZ

**Q.** What does the source list for GENTAMICIN SULFATE?
**A.** inhibition zone (IZ) (Bacillus subtilis [1]): 24 mm; inhibition zone (IZ) (Staphylococcus aureus [2]): 24 mm

**Q.** How did the zone of inhibition at 50 µg/disc (Candida albicans [3]) turn out when `CCCCC[C@@H](O)[C@H]1C(=O)O[C@H](C)[C@@H](O)/C=C/C=C/C=C/C=C/C=C(\C)[C@@H](O)C[C@H](O)C[C@H](O)C[C@H](O)C[C@H](O)C[C@H](O)C[C@@H]1O` [FILIPIN] was run?
**A.** Its zone of inhibition at 50 µg/disc is 15 mm.

**Q.** What does the source list for `O=C(O)c1cccnc1` [NIACIN]?
**A.** zone of inhibition at 250 µg/disc (Fusarium verticillioides [4]): 30 mm; Activity (Aspergillus flavus): inactive

**Q.** For NYSTATIN, which inhibition zone (IZ) (Fusarium verticillioides [5]) is on record?
**A.** The inhibition zone (IZ) was 19 mm.

**Q.** For `CSC(=O)c1c(C)c(C)c(O)c(C)c1O` [MORTIVINACIN A], which zone of inhibition at 250 µg/disc (Fusarium verticillioides [4]) is on record?
**A.** The zone of inhibition at 250 µg/disc was 30 mm.

**Q.** And the zone of inhibition at 100 µg/disc (Candida albicans [6])?
**A.** Its zone of inhibition at 100 µg/disc is 15 mm.

**Q.** What about the Activity (Aspergillus flavus) of the same compound?
**A.** The Activity was “inactive”.

**Q.** What does the source list for `COC(=O)c1c(C)c(C)c(O)c(C)c1O`?
**A.** zone of inhibition at 250 µg/disc (Fusarium verticillioides [4]): 30 mm; zone of inhibition at 100 µg/disc (Bacillus subtilis [7]): 10 mm; zone of inhibition at 100 µg/disc (Staphylococcus aureus [8]): 10 mm; Activity (Aspergillus flavus): inactive

**Q.** Which results are given for `COC(=O)CNC(=O)c1c(C)c(C)c(O)c(C)c1O`?
**A.** Activity (Fusarium verticillioides [4]): inactive; Activity (Aspergillus flavus): inactive

**Q.** With `COC(=O)[C@H](C)NC(=O)c1c(C)c(C)c(O)c(C)c1O` as the compound, how does the Activity (Fusarium verticillioides [4]) read?
**A.** Its Activity is “inactive”.

**Q.** And the Activity (Aspergillus flavus)?
**A.** The Activity was “inactive”.
